From patent US10420758B2, “Indolinyl-sulfonamide inhibitors of tankyrase and methods of use thereof” (The Board of Regents of the University of Texas System, priority 2015, dated 2019)

Experiments:
TNKS1 = TNKS1 (Homo sapiens, UniProt O95271); test: PARP profiling, parsylation of immobilized histone; format: biochemical; conditions: IWR compounds 10 μM
TNKS2 = TNKS2 (Homo sapiens, UniProt Q9H2K2); test: PARP profiling, parsylation of immobilized histone; format: biochemical; conditions: IWR compounds 10 μM
[1] = biological target: T1, purified Tnks1 SAM-PARP protein (Homo sapiens, UniProt O95271); test: In vitro Tnks activity assay, histone parsylation (HT Universal Color PARP Assay Kit); format: biochemical; conditions: parsylation of immobilized histone, colorimetric, FIG. 2A
T1 construct: purified Tnks1 SAM-PARP protein; provided by Herwig Schüler (gift, not a vendor)
Experimental: Parsylation of immobilized histone protein was determined by colorimetric detection of incorporated biotinylated NAD+ in 96 well format.

SW403 cells = test: Cell growth of SW403 cells; format: cell-based; conditions: FIG. 2C
[2] = biological target: T2, catalytic domain of human Tnks1 (Homo sapiens, UniProt O95271); test: Crystal structures of IWR compound/Tnks1 complexes, binding pocket; conditions: crystal structure, FIGS. 3A-3C
T2 construct: The catalytic domain of human Tnks1 (residues 1105-1313) was expressed; His6 (with TEV site) (N, cleaved yes); made in house; host or cells: E. coli BL21 (DE3)
Experimental: Protein Expression and Purification.
The catalytic domain of human Tnks1 (residues 1105-1313) was expressed by using a modified pET28 vector, which encodes an N-terminal His6-tag and a cleavage site for the Tobacco Etch Virus (TEV) protease. Protein expression was induced by 0.1 mM IPTG at 15° C. when the culture of the bacteria strain BL21 (DE3) transformed with the plasmid reached O.D. of 1.5. Cells were harvested 12 hrs after induction and lysed by Frenchpressing. The lysate was cleared by centrifugation at 15000 rpm for 1 hr. The protein was purified by Ni-NTA-based affinity chromatography and ion exchange chromatography. The N-terminal His6-tag was removed by overnight TEV protease treatment at 4° C. Purified protein was concentrated and stored in −80° C.
Crystallization, Data Collection and Structure Determination.
The purified Tnks1 catalytic domain at 5 mg/mL (0.22 mM) mixed with IWR-1 (the exo-form), IWR-3 and IWR-8 at 0.25 mM were subjected to crystallization trials by using sitting-drop 96-well plates. Following initial hits of crystallization, large crystals were obtained by hanging-drop vapor diffusion in conditions optimized based on the initial conditions. Crystals of the Tnks1/IWR-1 complex were grown at 20° C. in 0.1 M Bis-Tris (pH 5.3), 0.15 M MgCl2 and 20-23% PEG3350. […]

[3] = test system: Tnks 1 and 2, Axin, β-catenin in SW480 cells; test: Western blot of Tnks, Axin and β-catenin levels in SW480 cells; format: cell-based; conditions: SW480 cells (truncated Apc), FIG. 1A
Experimental: (FIG. 1A) Biochemical markers of Tnks inhibition associated with the Wnt/β-catenin pathway. […] (FIG. 1B) A biochemical screen to identify additional Tnks inhibitors from the IWR collection of Wnt pathway inhibitors. The effects of the IWR compounds on Tnks 1 and 2, β-catenin, and acetylated tubulin (Ac-Tub; loading control) expression levels were determined in SW480 cells by Western blot analysis.
For Western blot analysis cell lysates were generated with either PBS-NP40 buffer [phosphate-buffered saline (PBS)/1% NP40], or Tris-Triton X-100 buffer [50 mM Tris (pH 8), 200 mM NaCl, 1 mM EDTA, 1% Triton X-100, 10% glycerol, 1 mM DTT, 0.5 mM deoxycholate]. Both buffers were supplemented with protease inhibitor cocktail (Sigma). […] The lysates were cleared by centrifugation at 15,000 rpm for 10 min.

zebrafish = test: Zebrafish caudal fin regeneration after chemical removal; format: in vivo; conditions: resected caudal fins, water containing compound for 7 d, then removal
Source text: Achieving transient repression of pathological Wnt response without incurring permanent damage to normal stem cell function is a key anticancer therapeutic goal.

T1 sequence (O95271 1030-1317 limits assumed): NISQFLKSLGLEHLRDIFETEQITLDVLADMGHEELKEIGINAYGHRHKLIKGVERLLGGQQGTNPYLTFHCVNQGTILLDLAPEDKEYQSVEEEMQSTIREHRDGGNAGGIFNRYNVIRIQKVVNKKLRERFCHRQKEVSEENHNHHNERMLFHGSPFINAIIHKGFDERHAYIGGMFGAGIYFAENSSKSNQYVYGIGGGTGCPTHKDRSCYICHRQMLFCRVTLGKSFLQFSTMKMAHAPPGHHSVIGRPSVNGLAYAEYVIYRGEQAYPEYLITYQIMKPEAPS
Sequence of TNKS1 (O95271 whole entry): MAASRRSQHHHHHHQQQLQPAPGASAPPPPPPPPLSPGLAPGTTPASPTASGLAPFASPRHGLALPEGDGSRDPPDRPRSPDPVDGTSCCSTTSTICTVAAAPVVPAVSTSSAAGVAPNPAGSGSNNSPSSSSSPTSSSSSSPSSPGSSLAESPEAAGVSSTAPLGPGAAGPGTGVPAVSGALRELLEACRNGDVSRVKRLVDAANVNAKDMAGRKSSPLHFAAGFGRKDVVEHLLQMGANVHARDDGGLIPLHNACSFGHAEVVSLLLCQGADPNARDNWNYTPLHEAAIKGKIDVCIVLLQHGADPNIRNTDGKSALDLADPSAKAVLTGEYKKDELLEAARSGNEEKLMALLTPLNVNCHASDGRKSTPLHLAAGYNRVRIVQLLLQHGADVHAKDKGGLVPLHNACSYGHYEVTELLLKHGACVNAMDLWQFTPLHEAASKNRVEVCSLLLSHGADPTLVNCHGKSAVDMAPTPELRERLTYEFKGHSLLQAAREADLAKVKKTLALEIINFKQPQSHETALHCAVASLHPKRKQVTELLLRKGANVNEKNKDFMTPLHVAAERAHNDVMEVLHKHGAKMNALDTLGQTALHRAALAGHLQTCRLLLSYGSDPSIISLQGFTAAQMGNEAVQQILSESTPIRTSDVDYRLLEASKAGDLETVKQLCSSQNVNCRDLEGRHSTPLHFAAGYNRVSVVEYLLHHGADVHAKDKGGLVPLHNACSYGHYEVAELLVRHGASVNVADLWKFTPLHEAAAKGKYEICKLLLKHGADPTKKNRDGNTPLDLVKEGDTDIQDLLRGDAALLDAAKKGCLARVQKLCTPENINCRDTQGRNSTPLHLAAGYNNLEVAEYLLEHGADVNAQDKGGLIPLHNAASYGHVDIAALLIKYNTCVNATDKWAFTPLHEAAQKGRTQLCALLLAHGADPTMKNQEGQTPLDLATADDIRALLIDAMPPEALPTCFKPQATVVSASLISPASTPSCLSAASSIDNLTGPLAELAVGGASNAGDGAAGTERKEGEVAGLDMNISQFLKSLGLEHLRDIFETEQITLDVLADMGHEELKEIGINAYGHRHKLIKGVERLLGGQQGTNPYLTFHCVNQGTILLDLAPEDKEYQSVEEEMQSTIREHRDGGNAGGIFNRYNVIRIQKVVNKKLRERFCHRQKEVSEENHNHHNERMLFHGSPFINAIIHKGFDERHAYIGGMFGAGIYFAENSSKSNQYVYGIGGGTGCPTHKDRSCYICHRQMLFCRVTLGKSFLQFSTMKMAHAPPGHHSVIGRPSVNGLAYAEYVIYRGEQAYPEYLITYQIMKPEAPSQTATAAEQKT
Sequence of TNKS2 (Q9H2K2 whole entry): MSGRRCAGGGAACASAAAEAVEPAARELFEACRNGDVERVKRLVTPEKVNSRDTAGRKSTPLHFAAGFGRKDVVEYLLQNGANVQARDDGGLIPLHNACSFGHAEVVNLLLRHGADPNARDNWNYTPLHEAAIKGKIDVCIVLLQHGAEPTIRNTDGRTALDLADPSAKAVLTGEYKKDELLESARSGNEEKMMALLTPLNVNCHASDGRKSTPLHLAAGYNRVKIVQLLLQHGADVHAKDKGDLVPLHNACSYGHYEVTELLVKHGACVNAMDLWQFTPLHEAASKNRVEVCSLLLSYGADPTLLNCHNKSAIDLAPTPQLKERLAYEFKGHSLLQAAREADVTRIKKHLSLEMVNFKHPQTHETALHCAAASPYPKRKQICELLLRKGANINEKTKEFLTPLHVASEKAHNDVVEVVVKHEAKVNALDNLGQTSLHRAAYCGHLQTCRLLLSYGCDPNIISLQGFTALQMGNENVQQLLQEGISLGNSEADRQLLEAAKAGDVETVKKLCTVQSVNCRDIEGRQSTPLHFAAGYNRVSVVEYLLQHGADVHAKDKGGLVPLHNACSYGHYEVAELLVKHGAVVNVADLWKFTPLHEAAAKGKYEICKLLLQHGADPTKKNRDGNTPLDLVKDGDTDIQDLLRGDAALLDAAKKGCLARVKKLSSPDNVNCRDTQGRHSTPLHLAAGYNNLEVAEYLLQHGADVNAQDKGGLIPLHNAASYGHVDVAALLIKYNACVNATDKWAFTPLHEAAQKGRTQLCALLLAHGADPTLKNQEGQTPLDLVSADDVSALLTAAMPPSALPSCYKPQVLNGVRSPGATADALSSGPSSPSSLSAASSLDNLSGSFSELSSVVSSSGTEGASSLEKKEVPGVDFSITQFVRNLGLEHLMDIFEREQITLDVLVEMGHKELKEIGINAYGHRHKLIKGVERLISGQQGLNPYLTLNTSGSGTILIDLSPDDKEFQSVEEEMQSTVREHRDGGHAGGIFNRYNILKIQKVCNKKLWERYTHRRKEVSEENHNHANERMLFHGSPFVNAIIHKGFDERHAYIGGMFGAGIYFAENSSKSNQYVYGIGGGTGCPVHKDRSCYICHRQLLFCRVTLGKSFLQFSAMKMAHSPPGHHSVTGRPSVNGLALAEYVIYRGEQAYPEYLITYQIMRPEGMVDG
T2 sequence (O95271 1105-1313): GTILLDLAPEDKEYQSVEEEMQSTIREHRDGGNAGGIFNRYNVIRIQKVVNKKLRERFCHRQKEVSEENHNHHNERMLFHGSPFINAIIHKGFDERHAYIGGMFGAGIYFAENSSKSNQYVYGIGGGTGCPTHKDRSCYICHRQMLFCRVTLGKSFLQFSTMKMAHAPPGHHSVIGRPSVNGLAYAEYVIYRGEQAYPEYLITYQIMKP

Row | SMILES | inhibition at 10 µM (TNKS1) | inhibition at 10 µM (TNKS2) | ability to inhibit purified recombinant Tnks1 protein [1] | cell growth in a cancer cell line with compromised APC function (SW403 cells) | binding pocket engaged in Tnks1 [2] | Tnks and Axin protein levels [3] | β-catenin protein level [3] | fin regeneration after chemically induced blockade (zebrafish)
1 | CCN(C(=O)C1CCN(S(=O)(=O)c2cc3c(cc2Br)CCN3C(C)=O)CC1)c1cccc(C)c1 [IWR-8] | 99% | 99% | directly target Tnks | inhibits cell growth | engage the AD pocket | – | – | –
2 | O=C(Nc1cccc2cccnc12)c1ccc(N2C(=O)[C@@H]3[C@H](C2=O)[C@@H]2C=C[C@H]3C2)cc1 [IWR-1] | – | – | – | – | – | induce stabilization of both Tnks enzymes and Axin proteins | promote destruction of β-catenin | able to regenerate tissue to nearly normal levels after chemical removal
